Measured values: publication PMC11915030 (ACS Pharmacology & Translational Science, 2025)
Read-outs that look alike come from different tables or passages of the source.

Legend:
[1] = target: T1, MOR (Homo sapiens, UniProt P35372); experiment: cell-based; details: for Emax: read-out: Emax for G-protein activation
Procedure: The G-protein pathway activation was performed as previously described.[40] Briefly, the G-protein pathway activation was measured using HitHunter cAMP assays, which quantify cAMP, a secondary messenger involved in G-protein-coupled receptor (GPCR) signaling. This assay employed Enzyme Fragment Complementation (EFC) technology with β-galactosidase (β-Gal) as the reporter enzyme. Upon activation, β-Gal produces a chemiluminescent signal that is detected using a microplate reader, providing a quantitative measure of G-protein pathway activity.

[2] = target: T1, MOR; experiment: cell-based; details: for Emax: read-out: Emax for β-arrestin recruitment
Procedure: The β-Arrestin recruitment assay was performed as previously described.[41] Briefly, the PathHunter β-Arrestin assay was used to monitor GPCR activation through β-arrestin recruitment. This assay also utilized EFC technology, with β-Gal as the reporter enzyme. In this system, the Enzyme Acceptor (EA) fragment was fused to β-arrestin, and the ProLink (PK) fragment was fused to the GPCR of interest. Upon GPCR activation, EA and PK complementation restored β-Gal activity, generating a chemiluminescent signal that was measured using PathHunter Detection Reagents.

[3] = design: method as in doi:10.3390/scipharm88020025, PMID 17435173, PMID 24712707; details: water or methanol, cited from earlier work
[4] = test system: nonactivated THP-1 cells; experiment: Inflammatory cytokine assay, nonactivated THP-1 cells (ELISA); details: 24 h
[5] = test system: LPS-activated THP-1 cells; experiment: Inflammatory cytokine assay, LPS-activated THP-1 cells (ELISA); details: LPS 0.1 μg/mL, 24 h, three concentrations
Procedure: This assay evaluated the impact of various compounds on cytokine production in THP1 cells stimulated with LPS, as previously described with some modifications.[35] Following treatment, key cytokines were measured to enhance our understanding of the modulatory effects of these compounds on inflammation.
The cells were cultured for 24 h at 37 °C and 5% CO2. After the culture period, the cell free supernatants were harvested and stored at −80 °C until cytokine measurement.
The cytokines IL-1beta, IL-6 and TNF were measured using an ELISA Development Kit (R&D, biotechne, Wiesbaden, Germany) according to the recommendations of the manufacturer.

[6] = target: T2, MOR expressed in human embryonic kidney 293 (HEK-293) cells (Homo sapiens, UniProt P35372); experiment: In vitro radioligand competition binding assay against [3H]DAMGO (Eurofins)
T2 construct: host or cells: HEK-293
Procedure: The Ki values were determined from the measured IC50 values using the Cheng-Prusoff equation,[39] Ki = IC50/[1 + ([L]/Kd)], where [L] and Kd are the concentration and binding affinity of the radiolabeled ligand in the assay, respectively.

[7] = compared with the reported EC50 of morphine

T1 sequence (P35372 whole entry, the tested form may be a part): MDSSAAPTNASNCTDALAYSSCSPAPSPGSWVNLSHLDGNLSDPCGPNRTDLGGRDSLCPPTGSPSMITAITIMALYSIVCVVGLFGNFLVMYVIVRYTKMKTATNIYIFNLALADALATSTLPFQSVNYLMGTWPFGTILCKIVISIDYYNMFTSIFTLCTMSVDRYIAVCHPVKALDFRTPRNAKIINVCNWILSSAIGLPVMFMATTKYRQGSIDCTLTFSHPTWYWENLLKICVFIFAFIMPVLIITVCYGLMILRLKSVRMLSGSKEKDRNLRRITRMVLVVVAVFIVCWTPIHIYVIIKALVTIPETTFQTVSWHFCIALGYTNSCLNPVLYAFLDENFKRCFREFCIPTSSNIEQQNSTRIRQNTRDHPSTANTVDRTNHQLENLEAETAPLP
T2 sequence (P35372 whole entry): as the sequence (P35372 whole entry, the tested form may be a part) above

| SMILES | Emax [1] [%] | Emax [2] [%] | hydrolysis to 4-methylaminoantipyrine (4-MAA) ([3]; acidic conditions) | hydrolysis to 4-methylaminoantipyrine (4-MAA) ([3]; neutral pH) | induction of pro-inflammatory cytokines (TNF, IL-1beta, IL-6) [4] | effect on LPS-induced TNF release [5] | fold less potent against MOR than morphine (Ki) ([6]; compared with the reported Ki of morphine) | IC50 ([6]; read-out: half-maximal inhibitory concentration (IC50), MOR binding) [nM] | Ki ([6]; read-out: inhibitory constant (Ki), MOR binding) [nM] | fold difference to morphine, G-protein activation [1, 7] [fold] | fold difference to morphine, β-arrestin recruitment [2, 7] [fold] |
| --- | --- | --- | --- | --- | --- | --- | --- | --- | --- | --- | --- |
| COc1ccsc1CNCC[C@@]1(c2ccccn2)CCOC2(CCCC2)C1 [TRV-130, oliceridine, reference compound] | 100 | 7.9 |  |  |  |  |  |  |  |  |  |
| Cc1c(N(C)CS(=O)(=O)O)c(=O)n(-c2ccccc2)n1C [metamizole, metamizole sodium] |  |  | more rapidly | slowly | did not see any induction | dose-dependent and significant upregulation |  |  |  |  |  |
| Cc1c(N(C)Cc2cc3c4c(c2O)O[C@H]2[C@@H](O)C=C[C@H]5[C@@H](C3)N(C)CC[C@@]452)c(=O)n(-c2ccccc2)n1C [metamorphine] | 97 | 70 |  |  | did not see any induction | no significant effect | about 8 fold | 7.3 | 3 | 22 | 8 |
| CN1CC[C@]23c4c5ccc(O)c4O[C@H]2[C@@H](O)C=C[C@H]3[C@H]1C5 [morphine] |  |  |  |  | did not see any induction | no significant effect |  |  |  |  |  |
